Test [1] has as its system 5637 cells. Briefly: cell proliferation assay, 5637 cells. The note with it: 1% FBS, 6 d. Format: cell-based, Human.
Test [2] has as its system Erk. Briefly: Erk kinase activation (pErk/tErk) by 2-site immunoassay in J82 cells. Format: cell-based, Human. The note with it: serum-deprived J82 cells.
Test [3] relates to J82 cells. Briefly: cell proliferation assay, J82 cells. The format is cell-based, Human. Conditions: 1% FBS, 6 d.
Test [4] addresses T1, MERTK (Homo sapiens, UniProt Q12866).
T1 construct: endogenous in cells; host or cells: J82 and MDXC1 (J82 xenograft explant)
T1 sequence (Q12866 21-999): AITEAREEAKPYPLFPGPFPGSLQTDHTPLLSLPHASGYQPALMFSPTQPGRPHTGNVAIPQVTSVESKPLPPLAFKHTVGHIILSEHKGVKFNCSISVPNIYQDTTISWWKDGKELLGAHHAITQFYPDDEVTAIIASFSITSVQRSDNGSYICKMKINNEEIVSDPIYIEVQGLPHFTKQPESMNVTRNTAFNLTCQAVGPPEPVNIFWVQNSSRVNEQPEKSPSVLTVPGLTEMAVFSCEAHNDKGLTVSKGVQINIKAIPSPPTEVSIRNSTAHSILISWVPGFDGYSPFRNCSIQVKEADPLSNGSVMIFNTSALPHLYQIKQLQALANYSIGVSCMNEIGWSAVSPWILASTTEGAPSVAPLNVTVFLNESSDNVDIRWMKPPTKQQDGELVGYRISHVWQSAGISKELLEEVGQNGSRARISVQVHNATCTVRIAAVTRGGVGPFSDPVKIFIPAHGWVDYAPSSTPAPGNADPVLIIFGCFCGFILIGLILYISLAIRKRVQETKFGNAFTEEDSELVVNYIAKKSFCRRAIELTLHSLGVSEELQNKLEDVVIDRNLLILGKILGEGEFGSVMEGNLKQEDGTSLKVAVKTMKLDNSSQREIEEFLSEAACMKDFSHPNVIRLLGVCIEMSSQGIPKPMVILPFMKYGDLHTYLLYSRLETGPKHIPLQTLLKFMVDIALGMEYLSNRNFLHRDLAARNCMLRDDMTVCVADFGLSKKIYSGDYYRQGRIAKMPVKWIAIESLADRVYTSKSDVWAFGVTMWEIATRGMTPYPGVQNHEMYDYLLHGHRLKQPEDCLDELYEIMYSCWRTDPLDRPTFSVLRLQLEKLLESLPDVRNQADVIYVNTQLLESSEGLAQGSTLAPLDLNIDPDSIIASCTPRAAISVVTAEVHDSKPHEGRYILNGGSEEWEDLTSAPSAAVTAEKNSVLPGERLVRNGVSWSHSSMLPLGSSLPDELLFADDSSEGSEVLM
Briefly: phospho-MERTK immunoblot of J82 and MDXC1 lysates. Format: cell-based. Conditions: J82 and MDXC1 cells. The protocol:
For SDS-PAGE and immunoblot analysis, cultured cells were washed with cold PBS, extracted in Laemmli sample buffer, sonicated in ice-cold water with 3 cycles of 15 sec sonication followed by 1 min of cooling time. Samples were then heated for 5 min at 95°C prior to SDS-PAGE and electrophoretic transfer to nitrocellulose or PVDF membrane. Membranes were processed as described previously: membranes were blocked with 5% milk in Tris buffered saline, 0.1% Tween 20 (TBST) for 1 h at 25°C before incubating with primary antibody (1:1000 dilution) in TBST-5% milk for 16 h at 4°C. Membranes were then washed 3 times with TBST, incubated with horse radish peroxidase-labeled secondary antibody (1:10,000 dilution) for 1 h at 25°C, and washed for 3 h with TBS prior to ECL detection (Pierce/Thermo Fisher Scientific) according to the manufacturer’s supplied protocol. Imaging and quantitation of ECL light emission was performed using an Azure Biosystems c600 imaging system (Dublin, California USA).
Fig 8 Serial passage of J82 cell xenografts in mice. (A) Tumor volume (mm^3) of individual J82 (left) or MDXC1 (middle) cell xenografts in mice, or mean (+/- SD) tumor growth of both cell line xenografts (right), vs. days post implantation.
A general note: A western blot detects proteins with antibodies after separation by electrophoresis.

Test [5] has as its system Akt. Briefly: Akt kinase activation (pAkt/tAkt) by 2-site immunoassay in J82 cells. Format: cell-based, Human. Conditions: serum-deprived J82 cells.
Test [6] concerns the target IGF1R (Homo sapiens, UniProt P08069). As to the kind of experiment: cell-free kinase inhibition assay, cabozantinib dose-dependence. The format is biochemical.
Test [7] concerns TEK. Conditions: in vitro; read-out: IC50, TEK inhibition in vitro; cited from earlier work.
Test [8] has as its target PDGFRA (Homo sapiens, UniProt P16234). As to the kind of experiment: cell-free kinase inhibition assay, cabozantinib dose-dependence. Format: biochemical. Conditions: minimum of 3 x 10-dose curves.
The target in test [9] is FGFR4 (Homo sapiens, UniProt P22455). Described as above. Format: biochemical.
Test [10] concerns the target FGFR1 (Homo sapiens, UniProt P11362). The test is described as above. The format is biochemical.
Test [11] deals with DDR2 (Homo sapiens, UniProt Q16832). The test is described as above. Format: biochemical. The note with it: minimum of 3 x 10-dose curves.
The subject of test [12] is FL3 cells. Briefly: Transwell cell migration assay, FL3 cells. The note with it: serum deprived FL3 cells, 16 h, 37°C, cabozantinib 300 nM.
In test [13] the target is NTRK3 (Homo sapiens, UniProt Q16288). Briefly: cell-free kinase inhibition assay, cabozantinib dose-dependence. The format is biochemical. The note with it: minimum of 3 x 10-dose curves.
The target of test [14] is TYRO3 (Homo sapiens, UniProt Q06418). The description is as above. Format: biochemical. The note with it: minimum of 3 x 10-dose curves.
The test system of test [15] is Erk. Briefly: Erk kinase activation (pErk/tErk) in FL3 cells, MST1R and CSF1R pathways. Conditions: MST1 or CSF1, cabozantinib. Format: cell-based, Human.
Test [16] relates to J82 cells. Briefly: Transwell cell migration assay, J82 cells. The note with it: serum deprived J82 cells, 16 h, 37°C, Gas6 5.7 nM, cabozantinib 300 nM.
The target in test [17] is FLT4 (Homo sapiens, UniProt P35916). Briefly: cell-free kinase inhibition assay, cabozantinib dose-dependence. The note with it: minimum of 3 x 10-dose curves. Format: biochemical.
For test [18], the system named is FL3 cells. As to the kind of experiment: cell proliferation assay, FL3 cells. The format is cell-based, Human. The note with it: 1% FBS, 6 d.
The target in test [19] is FGFR2 (Homo sapiens, UniProt P21802). As to the kind of experiment: cell-free kinase inhibition assay, cabozantinib dose-dependence. The note with it: minimum of 3 x 10-dose curves. Format: biochemical.
Test [20] concerns the target FGFR3 (Homo sapiens, UniProt P22607). The test is described as above. Format: biochemical.
Test [21] addresses ALK (Homo sapiens, UniProt Q9UM73). Described as above.
The test system of test [22] is FL3 cells. Briefly: anchorage independent growth assay, FL3 cells. The note with it: 1% FBS, cabozantinib 300 nM, with or without MST1 5 nM or CSF1 10 nM.
Test [23] concerns the target T2, Axl (Homo sapiens, UniProt P30530).
T2 construct: endogenous in cells; host or cells: J82 (ATCC HTB-1)
As to the kind of experiment: Axl kinase activation (pAxl/tAxl) by 2-site immunoassay in J82 cells. Format: cell-based. The note with it: serum-deprived J82 cells, Gas6 5.7 nM 1 h at 37°C, added cabozantinib 300 nM, relative to untreated cells.

For test [24], the system named is J82 cells. As to the kind of experiment: anchorage independent growth assay, J82 cells. The note with it: 1% FBS, cabozantinib 300 nM, with or without Gas6 5.7 nM.
The test system of test [25] is Akt. As to the kind of experiment: Akt kinase activation (pAkt/tAkt) in FL3 cells, MST1R and CSF1R pathways. The format is cell-based, Human. Conditions: serum-deprived FL3 cells, MST1 (5 nM) or CSF1 (10 nM), cabozantinib 300 nM.
Test [26] deals with T3, CSF1R (Homo sapiens, UniProt P07333). The arrangement: method as in PMID 30075184. The note with it: intact cells; cited from earlier work.
The target of test [27] is NTRK1 (Homo sapiens, UniProt P04629). Briefly: cell-free kinase inhibition assay, cabozantinib dose-dependence. The format is biochemical. The note with it: minimum of 3 x 10-dose curves.
Test [28] concerns the target T3, CSF1R. The test is described as above. The format is biochemical. The note with it: minimum of 3 x 10-dose curves.
Test [29] deals with NTRK2 (Homo sapiens, UniProt Q16620). The description is as above. Format: biochemical.
Test [30] addresses DDR1 (Homo sapiens, UniProt Q08345). The test is described as above. Format: biochemical. Conditions: minimum of 3 x 10-dose curves.
For test [31], the system named is advanced BCa. The note with it: clinical trial of cabozantinib in advanced BCa patients; cited from earlier work.
Test [32] deals with MUSK (Homo sapiens, UniProt O15146). As to the kind of experiment: cell-free kinase inhibition assay, cabozantinib dose-dependence. Format: biochemical.
The target in test [33] is ROS (Homo sapiens, UniProt P08922). The description is as above. The format is biochemical. Conditions: minimum of 3 x 10-dose curves.
[34] abbreviates: exogenous Gas6 5.7 nM, 1 h at 37°C.
Setting [35] is: cabozantinib 300 nM, in the presence or absence of added Gas6 (5.7 nM).
[36] abbreviates: Gas6 5.7 nM 1 h, cabozantinib 300 nM.

Several values for one entry are separate records, joined by “and”; a condition that tells them apart may be missing. Identical values can stand only once. Like-named read-outs stand apart in the source and are kept apart here. Some results are limits rather than exact numbers.

By IC50 is commonly meant the concentration that inhibits the measured activity by half.

FLT4, sequence (P35916 25-1363): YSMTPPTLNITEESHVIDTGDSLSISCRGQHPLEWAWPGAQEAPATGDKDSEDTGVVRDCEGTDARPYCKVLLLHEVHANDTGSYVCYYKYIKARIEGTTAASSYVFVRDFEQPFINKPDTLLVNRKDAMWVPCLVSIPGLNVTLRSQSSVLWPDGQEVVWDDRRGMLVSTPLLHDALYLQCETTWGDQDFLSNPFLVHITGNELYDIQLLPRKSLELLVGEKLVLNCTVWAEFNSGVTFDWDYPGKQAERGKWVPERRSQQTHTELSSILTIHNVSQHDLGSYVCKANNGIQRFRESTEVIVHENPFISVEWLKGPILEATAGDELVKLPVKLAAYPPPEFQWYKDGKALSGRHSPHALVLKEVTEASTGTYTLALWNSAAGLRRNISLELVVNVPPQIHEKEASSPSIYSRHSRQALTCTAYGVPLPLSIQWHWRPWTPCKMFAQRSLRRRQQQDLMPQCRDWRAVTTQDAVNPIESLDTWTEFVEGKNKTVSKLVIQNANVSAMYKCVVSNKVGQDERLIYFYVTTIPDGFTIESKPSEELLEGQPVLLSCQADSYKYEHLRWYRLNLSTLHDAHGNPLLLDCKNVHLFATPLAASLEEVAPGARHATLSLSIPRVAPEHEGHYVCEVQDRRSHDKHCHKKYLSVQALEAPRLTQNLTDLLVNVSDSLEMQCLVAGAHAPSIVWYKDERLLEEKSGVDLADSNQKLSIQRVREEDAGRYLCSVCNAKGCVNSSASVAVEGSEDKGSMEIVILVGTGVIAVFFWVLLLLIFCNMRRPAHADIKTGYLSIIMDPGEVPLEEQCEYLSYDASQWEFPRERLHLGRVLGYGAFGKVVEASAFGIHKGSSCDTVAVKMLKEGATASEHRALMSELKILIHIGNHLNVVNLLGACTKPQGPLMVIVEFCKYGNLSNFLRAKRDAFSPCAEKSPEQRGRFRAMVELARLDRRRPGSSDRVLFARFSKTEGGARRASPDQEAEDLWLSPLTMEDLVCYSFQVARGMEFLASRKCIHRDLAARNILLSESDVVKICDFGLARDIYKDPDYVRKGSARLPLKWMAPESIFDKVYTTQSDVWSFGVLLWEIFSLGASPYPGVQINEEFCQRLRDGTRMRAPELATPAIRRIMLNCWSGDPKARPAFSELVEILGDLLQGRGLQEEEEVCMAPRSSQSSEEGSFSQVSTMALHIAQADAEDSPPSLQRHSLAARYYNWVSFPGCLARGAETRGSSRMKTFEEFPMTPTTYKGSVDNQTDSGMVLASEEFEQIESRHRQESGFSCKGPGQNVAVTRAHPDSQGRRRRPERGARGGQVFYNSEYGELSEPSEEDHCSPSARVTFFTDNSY
T3 sequence (P07333 20-972): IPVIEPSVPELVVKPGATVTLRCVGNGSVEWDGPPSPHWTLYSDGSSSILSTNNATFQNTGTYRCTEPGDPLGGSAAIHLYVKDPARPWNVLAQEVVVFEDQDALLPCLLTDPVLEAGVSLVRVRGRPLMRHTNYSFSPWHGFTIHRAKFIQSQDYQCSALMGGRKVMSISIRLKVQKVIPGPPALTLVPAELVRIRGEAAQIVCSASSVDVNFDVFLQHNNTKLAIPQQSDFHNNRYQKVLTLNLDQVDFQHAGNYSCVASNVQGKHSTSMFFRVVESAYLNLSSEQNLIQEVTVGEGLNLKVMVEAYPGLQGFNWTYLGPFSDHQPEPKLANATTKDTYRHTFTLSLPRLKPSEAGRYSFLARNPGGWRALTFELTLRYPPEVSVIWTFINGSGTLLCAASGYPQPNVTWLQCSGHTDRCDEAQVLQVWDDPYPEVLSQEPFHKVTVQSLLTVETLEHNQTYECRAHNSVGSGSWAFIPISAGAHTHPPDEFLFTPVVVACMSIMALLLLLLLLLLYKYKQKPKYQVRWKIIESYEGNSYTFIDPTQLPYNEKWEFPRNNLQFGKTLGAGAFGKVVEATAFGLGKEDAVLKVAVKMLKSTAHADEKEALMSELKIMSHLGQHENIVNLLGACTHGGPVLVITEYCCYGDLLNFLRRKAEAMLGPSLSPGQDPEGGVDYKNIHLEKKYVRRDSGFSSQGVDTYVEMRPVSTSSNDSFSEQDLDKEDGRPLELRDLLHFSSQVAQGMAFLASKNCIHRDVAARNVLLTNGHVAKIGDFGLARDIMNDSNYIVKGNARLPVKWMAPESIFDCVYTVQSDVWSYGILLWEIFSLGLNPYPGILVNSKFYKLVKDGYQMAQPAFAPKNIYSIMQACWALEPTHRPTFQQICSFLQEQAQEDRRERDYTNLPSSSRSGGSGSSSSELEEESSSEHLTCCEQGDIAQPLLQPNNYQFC
ROS, sequence (P08922 28-2347): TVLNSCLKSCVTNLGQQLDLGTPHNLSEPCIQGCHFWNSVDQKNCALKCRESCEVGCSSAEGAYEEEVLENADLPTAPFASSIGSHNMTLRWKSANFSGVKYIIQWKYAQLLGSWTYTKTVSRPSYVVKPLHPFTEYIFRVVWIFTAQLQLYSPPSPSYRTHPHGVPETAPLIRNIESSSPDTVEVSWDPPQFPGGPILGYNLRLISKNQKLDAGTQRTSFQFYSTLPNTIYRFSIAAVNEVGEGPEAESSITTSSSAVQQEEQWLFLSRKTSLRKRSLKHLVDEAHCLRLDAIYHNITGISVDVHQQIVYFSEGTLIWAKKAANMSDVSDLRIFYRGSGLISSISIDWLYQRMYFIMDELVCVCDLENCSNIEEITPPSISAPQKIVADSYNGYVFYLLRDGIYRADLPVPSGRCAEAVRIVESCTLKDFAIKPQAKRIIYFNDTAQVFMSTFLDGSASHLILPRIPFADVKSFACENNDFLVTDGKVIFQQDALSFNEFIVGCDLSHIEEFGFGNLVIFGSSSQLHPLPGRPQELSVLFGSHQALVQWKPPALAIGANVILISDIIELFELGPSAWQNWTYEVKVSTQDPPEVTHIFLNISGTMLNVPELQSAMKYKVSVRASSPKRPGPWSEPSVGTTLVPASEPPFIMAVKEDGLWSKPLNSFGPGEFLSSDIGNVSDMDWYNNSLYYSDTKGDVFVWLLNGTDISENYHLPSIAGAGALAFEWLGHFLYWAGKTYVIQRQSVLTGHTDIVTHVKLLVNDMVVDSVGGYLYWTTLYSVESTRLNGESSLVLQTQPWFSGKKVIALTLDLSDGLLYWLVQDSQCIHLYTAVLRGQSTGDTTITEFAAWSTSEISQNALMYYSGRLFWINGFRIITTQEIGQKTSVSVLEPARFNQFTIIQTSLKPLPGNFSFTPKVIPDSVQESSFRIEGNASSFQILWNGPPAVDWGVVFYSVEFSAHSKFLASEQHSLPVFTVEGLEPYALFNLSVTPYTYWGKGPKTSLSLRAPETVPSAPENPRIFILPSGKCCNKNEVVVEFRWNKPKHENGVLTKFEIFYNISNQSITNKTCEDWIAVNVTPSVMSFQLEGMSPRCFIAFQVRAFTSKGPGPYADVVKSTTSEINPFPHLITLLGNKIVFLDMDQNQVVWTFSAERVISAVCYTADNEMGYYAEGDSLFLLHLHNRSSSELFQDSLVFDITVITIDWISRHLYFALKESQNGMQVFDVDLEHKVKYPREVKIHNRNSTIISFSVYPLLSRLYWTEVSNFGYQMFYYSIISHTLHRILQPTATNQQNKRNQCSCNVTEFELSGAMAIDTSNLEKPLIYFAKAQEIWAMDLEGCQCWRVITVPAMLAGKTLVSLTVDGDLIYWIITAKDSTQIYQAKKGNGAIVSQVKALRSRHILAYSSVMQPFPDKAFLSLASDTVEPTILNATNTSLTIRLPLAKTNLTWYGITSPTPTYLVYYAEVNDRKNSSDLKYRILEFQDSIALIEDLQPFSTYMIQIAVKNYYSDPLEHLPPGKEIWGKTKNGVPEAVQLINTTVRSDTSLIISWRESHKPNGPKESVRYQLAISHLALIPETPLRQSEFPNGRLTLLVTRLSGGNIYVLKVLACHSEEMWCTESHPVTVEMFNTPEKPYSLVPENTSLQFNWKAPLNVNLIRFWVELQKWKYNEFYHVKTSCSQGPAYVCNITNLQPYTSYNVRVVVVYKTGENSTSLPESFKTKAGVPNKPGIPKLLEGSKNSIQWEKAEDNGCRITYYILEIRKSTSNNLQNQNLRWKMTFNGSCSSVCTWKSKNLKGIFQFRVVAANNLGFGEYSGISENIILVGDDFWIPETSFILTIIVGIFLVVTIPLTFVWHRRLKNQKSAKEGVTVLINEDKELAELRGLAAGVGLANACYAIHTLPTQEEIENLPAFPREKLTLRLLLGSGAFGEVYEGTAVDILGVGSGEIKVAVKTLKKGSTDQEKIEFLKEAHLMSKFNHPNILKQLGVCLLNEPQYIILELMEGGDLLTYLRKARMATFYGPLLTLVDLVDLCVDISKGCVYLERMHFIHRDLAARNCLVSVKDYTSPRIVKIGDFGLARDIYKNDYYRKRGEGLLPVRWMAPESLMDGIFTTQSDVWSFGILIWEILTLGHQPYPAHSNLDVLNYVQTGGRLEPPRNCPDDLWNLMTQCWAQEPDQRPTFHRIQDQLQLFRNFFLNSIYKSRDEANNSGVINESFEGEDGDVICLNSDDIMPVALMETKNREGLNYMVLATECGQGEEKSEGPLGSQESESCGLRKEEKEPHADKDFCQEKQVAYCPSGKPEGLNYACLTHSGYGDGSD

Regarding “Gas6: exogenous ligand of AXL (also activates MERTK), added to cells at 5.7 nM”, the proliferation rate entry in test [1] (exogenously added Gas6 5.7 nM) and in [3] (exogenously added Gas6 5.7 nM) was “significantly increased” each time. Further, the “Erk kinase activation (pErk/tErk)” value in test [2] (setting [34]) is given as “significant exogenous Gas6-induced activation”. The MERTK autophosphorylation result in test [4] (exogenous Gas6 5.7 nM) was “stimulated robust MERTK autophosphorylation”. In addition, the “Akt kinase activation (pAkt/tAkt)” value in test [5] (setting [34]) was “significant exogenous Gas6-induced activation”.

`COc1cc2nccc(Oc3ccc(NC(=O)C4(C(=O)Nc5ccc(F)cc5)CC4)cc3)c2cc1OC` [cabozantinib]: the IC50 in test [6] was above 3000 nM; in [7] it was 14 nM; in [8] it was 414 nM; in test [9], above 3000 nM; in [10] it was above 3000 nM; in test [11] it was below 150 nM. The IC50 is below 150 nM in test [13]; < 50 nM and 3 nM in test [14]; 24 nM and < 50 nM in [17]; above 3000 nM in test [19]; above 3000 nM in [20]; above 3000 nM in test [21]. In addition, the IC50 was 11 nM in [27]; 14 nM in [28]; below 50 nM in test [29]; 15 nM in [29] (IC50 (NTRK2), cell-free assay, minimum of 3 x 10-dose curves); below 150 nM in test [30]; above 3000 nM in [32]. In test [33], the IC50 is 43 nM and < 50 nM. Moreover, the CSF1-induced migration entry in test [12] (CSF1 10 nM) was “repressed”. In [12] (MST1 5 nM), the MST1-induced migration entry is listed as “repressed”. The proliferation entry is “significantly inhibited proliferation by these lines below the rate of untreated cells” in test [1] (setting [35]); “reduced FL3 proliferation to the control cell growth rate, but not below” in test [18] (both cabozantinib 300 nM and MST1 5 nM); “significantly inhibited proliferation by these lines below the rate of untreated cells” in test [3] (setting [35]). For the same molecule, the “Erk kinase activation (pErk/tErk)” value is listed as “suppressed significantly below baseline” in test [15] and “suppression below baseline” in test [2] (setting [36]). The Gas6-induced migration entry in test [16] is on record as “repressed”. Besides, the proliferation rate result in test [18] (cabozantinib alone 300 nM, relative to untreated cells) is recorded as “significantly reduced proliferation rate”. Besides, the anchorage independent growth entry in test [22] and in [24] was “inhibited” in each case. In addition, the “Axl kinase activation (pAxl/tAxl)” value in test [23] is listed as “suppressed significantly below control levels”. Moreover, the entries for the “Akt kinase activation (pAkt/tAkt)” value in [5] (setting [36]) and in test [25] were “suppression below baseline” and “suppressed significantly below baseline”, respectively. In addition, the “inhibition of CSF1R activation” value in test [26] is on record as “complete inhibition”. Moreover, the overall response rate in [31] is 33%.

Take `CN1CCN(Cc2ccc(Nc3ncc(Cl)c(Nc4ccccc4S(=O)(=O)N(C)C)n3)cc2)CC1` [TP0903]: in test [4] (TP0903 300 nM), the phospho-MERTK content result is reported as “reduced phospho-MERTK content below that of untreated serum-deprived cells”.

These data come from paper PMC8297783, “Autocrine signaling by receptor tyrosine kinases in urothelial carcinoma of the bladder” (PLoS ONE, 2021).
